Reference: US10451637B2, “Synthetic blood vessels and uses thereof” (THE UNIVERSITY OF BRITISH COLUMBIA, priority 2017, dated 2019)
Entries after “also recorded” stand apart in the source; their conditions may differ.

How the values were obtained:
endothelial barrier = assay: Endothelial barrier integrity, Evans blue injected into circulation loop; assay type: in vitro ADME, human; conditions: tripartite and bipartite vessels
From the text: The integrity of the endothelial barrier in tripartite vessels was functionally assessed by injecting Evans blue into the circulation loop and compared to bipartite vessels. As expected, Evans blue was excluded in both tripartite and bipartite vessels (FIG. 1A).

[1] = system: native apoE secreted by astrocytes; assay: Astrocyte apoE secretion in tripartite vessels (ELISA); assay type: cell-based, human; conditions: GW3965 circulated through lumen 72 h
Experimental: All experiments were conducted under an approved clinical protocol (UBC Clinical Ethics Research Board H14-03357). Upon receipt of written informed consent, 100 ml of fasted blood was collected from normolipidemic healthy donors into vacutainer tubes containing EDTA. Plasma HDL (1.063-1.21 g/ml) was isolated by sequential potassium bromide gradient ultracentrifugation. The purity of the HDL preparations were verified by sodium dodecyl sulfate polyacrylamide gel electrophoresis (SDS-PAGE) followed by Coomassie blue staining to ensure no low-density lipoprotein (LDL) or albumin contamination. Total protein concentration was assessed using the bicinchoninic acid (BCA) assay (Thermofisher Scientific). Recombinant ApoE2 and ApoE4 were commercially purchased and solubilized following the manufacturer's instructions (ABCAM, apoE2 ab55210 and apoE4 ab50243). Secretion of endogenous ApoE from human astrocytes in tripartite vessels was induced by injecting 0.8 μM GW3965 in the circulation medium 72 h prior to addition of Aβ. ApoE concentrations were measured using enzyme linked immunosorbent assay (ELISA) as previously described (Fan et al. 2016 PLoS One. September 6; 11(9):e0162384). […] Fluorescence was read after 15 min at RT on an EnSpire 2300 Multilabel Plate Reader (325Ex/420Em). […]

glutamate release = assay: Neuronal functionality: glutamate release from quadripartite tissue (HPLC); assay type: cell-based, human; conditions: 50 nM KCl for 30 min
Experimental: After 21 days in culture, quadripartite tissue were harvested in Hanks buffered salt solution (HBSS) and cut in half. One half is incubated in HBSS without potassium chloride (KCl) and one half in HBSS with […] KCl. After 30 minutes buffer was collected and run through a GABA/glutamate affinity column on a high pressure liquid chromatography (HPLC) previously calibrated with glutamate standard (0 to 2.5 uM).
The functionality of the neurons was further evaluated by measuring glutamate release in the absence and presence of […] of KCL for 30 min. Glutamate release was then measured by HPLC (FIG. 9A). […] Finally, the secretion of endogenous neuronally-produced Aβ40 and Aβ42 in quadripartite tissue (FIG. 9B) and in circulatory medium (FIG. 9C) as measured by commercial ELISA as above.

NO synthase = assay: NO production by EC in tripartite vessels (conversion of L-3H-arginine to L-3H-citruline); assay type: cell-based, human; conditions: 1 mM L-NAME with Ach or HDL stimulation
Experimental: Nitric oxide (NO) synthesis was measured using a commercial nitric oxide synthesis (NOS) activity assay kit (Caymenchemical). Briefly, a 2-3 mm ring of vascular tissue was mechanically ground in 150 μl of ice-cold homogenized buffer (25 mM Tris-Cl, pH7.4, 1 mM EDTA and 1 mM EGTA) and centrifuged 15 min at 4° C. at 10,000 g. The supernatant was aliquoted and incubated in reaction buffer containing 25 mM Tris-Cl, pH7.4, 0.25 mM EDTA, 0.6 mM CaCl2, 1 mM NADP, 200 nM calmodulin, 3 μM tetrahydrobiopterin, 1 μM flavin adenine dinucleotide, 1 μM flavin adenine monoucleotide and 0.2 μCi L-^3H-arginine; PerkinElmer) in the presence of 10 nM acetylcholine (Ach), 0.2 mg/ml HDL or 1 mM L-NG-nitroarginine methyl ester (L-NAME). After 60 min at 37° C., the reaction was stopped by adding 400 μl of stop buffer ([…] HEPES, 5 mM EDTA, pH 5.5). […] Scintillation mix (Ultimate Gold, PerkinElmer) was added to the supernatant and counted using LS6500 β-counter (Beckman Coulter). The percent citrulline formed was calculated as follows: % conversion=(cpm reaction-cpm background)/cpm total*100.
The functionality of EC and astrocytes within tripartite bioengineered vessels was evaluated by measuring nitric oxide (NO) produced by EC and native apoE secreted by astrocytes, which were genotyped as apoE3/apoE3. […]

Aβ40 [2] = assay: Aβ40 transport into luminal circulating medium, bipartite vessels (ELISA); assay type: cell-based, human; conditions: 1 μM Aβ40, over 4 h, apoE ratio 25:1 antelumen, HDL 200 μg/ml circulating
Experimental: (§1) Recombinant Aβ40 and Aβ42 peptides (California Peptide) were dissolved in hexafluoroisopropanol (HFIP). The HFIP was removed by evaporation overnight and stocks were stored at −20° C. On the day of the assay, soluble monomers were prepared by reconstituting the peptide film in dimethylsulfoxide (DMSO) to 5 mM, diluted further to […] in Roswell Park Memorial Institute (RPMI) medium without FBS. 100 μl of Aβ solution was injected in the tissue chamber containing 900 μl of DMEM (Gibco) without FBS to the desired concentration using a syringe under flow conditions. For luminal recovery, 100 μl circulating medium was collected at the indicated time.
(§2) Luminal medium was collected from the circulation chamber and 5 mm tissue rings were crushed and lysed in radioimmunoprecipitation assay (RIPA) buffer (10 mM Tris pH 7.4, 150 mM NaCl, 1.0% NP-40, 1.0% sodium deoxycholate, 0.1% SDS and cOmplete protease inhibitor with EDTA (Roche)). Aβ40 (KHB3442, Life Tech) and Aβ42 (KHB3482, Life Tech) were quantified using commercial ELISAs and normalized to total protein concentration, measured by BCA.
(§3) Genetic variation in APOE represents a common genetic risk for AD, with apoE4 considered detrimental and apoE2 protective (Zlokovic, 2013 JAMA Neurol 70(4):440-444). […]

Aβ42 [3] = assay: Aβ42 transport into luminal circulating medium, bipartite vessels (ELISA); assay type: cell-based, human; conditions: 1 μM Aβ42, over 4 h, apoE ratio 25:1 antelumen, HDL 200 μg/ml circulating
Experimental: as §1, §2
(§4) Bipartite vessels were prepared as described above. […]

Aβ40 [4] = assay: Aβ40 accumulation in vascular tissue, bipartite vessels (ELISA); assay type: cell-based, human; conditions: 1 μM Aβ40, 24 h, apoE ratio 25:1, HDL 200 μg/ml
Experimental: as §1, §2, §3

Aβ42 [5] = assay: Aβ42 accumulation in vascular tissue, bipartite vessels (ELISA); assay type: cell-based, human; conditions: 1 μM Aβ42, 24 h, apoE ratio 25:1, HDL 200 μg/ml
Experimental: as §1, §2, §4

Aβ40 [6] = assay: Aβ40 transport into luminal circulating medium, tripartite vessels (ELISA); assay type: cell-based, human; conditions: 1 μM Aβ40, over 4 h, GW3965 0.8 μM 72 h (astrocyte apoE), HDL 200 μg/ml
Experimental: as §1
(§5) All experiments were conducted under an approved clinical protocol (UBC Clinical Ethics Research Board H14-03357). Upon receipt of written informed consent, 100 ml of fasted blood was collected from normolipidemic healthy donors into vacutainer tubes containing EDTA. Plasma HDL (1.063-1.21 g/ml) was isolated by sequential potassium bromide gradient ultracentrifugation. […] Total protein concentration was assessed using the bicinchoninic acid (BCA) assay (Thermofisher Scientific). […] ApoE concentrations were measured using enzyme linked immunosorbent assay (ELISA) as previously described (Fan et al. 2016 PLoS One. September 6; 11(9):e0162384). […] Fluorescence was read after 15 min at RT on an EnSpire 2300 Multilabel Plate Reader (325Ex/420Em). […]

Aβ42 [7] = assay: Aβ42 transport into luminal circulating medium, tripartite vessels (ELISA); assay type: cell-based, human; conditions: 1 μM Aβ42, over 4 h, GW3965 0.8 μM 72 h (astrocyte apoE), HDL 200 μg/ml
Experimental: as §1, §5

Aβ40 [8] = assay: Aβ40 accumulation in vascular tissue, tripartite vessels (ELISA); assay type: cell-based, human; conditions: after 24 h, relative to baseline tripartite conditions
Experimental: as §1, §5

Aβ42 [9] = assay: Aβ42 accumulation in vascular tissue, tripartite vessels (ELISA); assay type: cell-based, human; conditions: after 24 h, relative to baseline tripartite conditions
Experimental: as §1, §5

Cc1cc(-c2ccc(/N=N/c3ccc4c(S(=O)(=O)O)cc(S(=O)(=O)O)c(N)c4c3O)c(C)c2)ccc1/N=N/c1ccc2c(S(=O)(=O)O)cc(S(=O)(=O)O)c(N)c2c1O [Evans blue]
Evans blue exclusion (integrity of the endothelial barrier) (endothelial barrier): excluded

O=C(O)Cc1cccc(OCCCN(Cc2cccc(C(F)(F)F)c2Cl)CC(c2ccccc2)c2ccccc2)c1 [GW3965]
secretion of native apoE [1]: significantly stimulated

[Cl-].[K+] [KCl, potassium chloride]
glutamate release (glutamate release): increased glutamate release

COC(=O)[C@@H](N)CCCNC(=N)N[N+](=O)[O-] [L-NAME, L-NG-nitroarginine methyl ester]
conversion of L-3H-arginine to L-3H-citruline in the presence of L-NAME (NO synthase): the conversion was blocked

apoE2: Recombinant ApoE2, commercially purchased (ABCAM ab55210)
Aβ40 transport (recovery into circulation medium) (Aβ40 [2]): did not alter
Aβ42 transport (recovery into circulation medium) (Aβ42 [3]): did not alter
Aβ40 accumulated in tissue (Aβ40 [4]): not significantly affected
Aβ42 accumulated in tissue (Aβ42 [5]): selectively decreased; also recorded: significantly reduced

apoE4: Recombinant ApoE4, commercially purchased (ABCAM ab50243)
Aβ42 accumulated in tissue (Aβ42 [5]): selectively elevated

apoE: Native apoE3 secreted from astrocytes in tripartite vessels, stimulated with GW3965 (0.8 μM) for 72 h
rate of Aβ40 transport (Aβ40 [6]): neither apoE alone nor HDL alone modified the rate
rate of Aβ42 transport (Aβ42 [7]): neither apoE alone nor HDL alone modified the rate
accumulation of Aβ40 within tissue (Aβ40 [8]): neither apoE, HDL, nor both apoE and HDL affected accumulation
accumulation of Aβ42 within tissue (Aβ42 [9]): neither apoE, HDL, nor both apoE and HDL affected accumulation
